Measured values as given in the NIST ThermoML archive (doi:10.1021/acs.jced.5b00094).
Numbers after ± are expanded uncertainties. Values belong to the molecule of their own block, whether it stands above or below them.

Experiment: wn = mass fraction of the nth substance listed
Conditions: 348 K, 101 kPa, Liquid, Pycnometric method

mass density (w1 = 0.332): 1204 ± 1.6 kg/m3
SMILES: [Cl-].[K+] [potassium chloride] + O

mass density (w1 = 0.2745): 1183 ± 1.4 kg/m3
SMILES: [Cl-].[Na+] [sodium chloride] + O

mass density (w1 = 0.4775): 1620.5 ± 21 kg/m3
SMILES: [Cl-].[Cl-].[Sr+2] [strontium chloride] + O
